Experimental data taken from patent US9388176B2, “Method of treating conditiions with kinase inhibitors” (Allergan, Inc., priority 2012, dated 2016).

biological target: VEGFR2 (KDR) kinase, purified cytoplasmic domain KDR protein (Homo sapiens (Human), UniProt P35968); test: VEGFR2 Kinase Assay; type: biochemical; details: 2.7 μM ATP, poly-Glu-Tyr (4:1) substrate, 15 minute incubation at 30° C., ELISA read at 492 nm
Description: Biochemical KDR kinase assays were performed in 96 well microliter plates that were coated overnight with 75 μg/well of poly-Glu-Tyr (4:1) in 10 mM Phosphate Buffered Saline (PBS), pH 7.4. The coated plates were washed with 2 mls per well PBS+0.05% Tween-20 (PBS-T), blocked by incubation with PBS containing 1% BSA, then washed with 2 mls per well PBS-T prior to starting the reaction. […] Reactions were initiated by the addition 20 ul per well of kinase buffer containing 200-300 ng purified cytoplasmic domain KDR protein (BPS Bioscience, San Diego, Calif.). Following a 15 minute incubation at 30° C., the reactions were washed 2 mls per well PBS-T. 100 μl of a monoclonal anti-phosphotyrosine antibody-peroxidase conjugate diluted 1:10,000 in PBS-T was added to the wells for 30 minutes. Following a 2 mls per well wash with PBS-Tween-20, 100 μl of O-Phenylenediamine Dihydrochloride in phosphate-citrate buffer, containing urea hydrogen peroxide, was added to the wells for 7-10 minutes as a colorimetric substrate for the peroxidase. […] IC50 values for compound inhibition were calculated directly from graphs of optical density (arbitrary units) versus compound concentration following subtraction of blank values.

Sequence of VEGFR2 (KDR) kinase, purified cytoplasmic domain KDR protein (P35968 786-1356): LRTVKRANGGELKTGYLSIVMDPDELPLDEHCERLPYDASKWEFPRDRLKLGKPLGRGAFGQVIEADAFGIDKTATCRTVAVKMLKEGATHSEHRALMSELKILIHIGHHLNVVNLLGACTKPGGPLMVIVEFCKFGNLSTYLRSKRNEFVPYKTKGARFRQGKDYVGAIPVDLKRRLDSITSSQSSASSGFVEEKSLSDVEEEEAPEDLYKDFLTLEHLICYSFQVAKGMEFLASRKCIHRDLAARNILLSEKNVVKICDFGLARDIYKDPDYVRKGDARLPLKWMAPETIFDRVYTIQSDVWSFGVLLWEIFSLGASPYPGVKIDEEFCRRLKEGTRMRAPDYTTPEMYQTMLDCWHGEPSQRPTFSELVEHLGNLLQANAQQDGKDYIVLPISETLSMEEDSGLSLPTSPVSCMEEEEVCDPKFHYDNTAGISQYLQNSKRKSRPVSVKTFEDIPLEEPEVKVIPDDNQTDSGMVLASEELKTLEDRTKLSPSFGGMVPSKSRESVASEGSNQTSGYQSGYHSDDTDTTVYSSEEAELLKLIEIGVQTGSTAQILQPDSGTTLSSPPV

| Compound | IC50 [nM] |
| --- | --- |
| 4-(2-Methylsulfanyl-5,7-dihydro-pyrrolo[3,4-d]pyrimidin-6-yl)-pyridine-2-carboxylic acid (3-trifluoromethyl-phenyl)-amide [Example 126] | > 10000 |
| CSc1ncc2c(n1)CCN(c1cc(C)cc(C(=O)Nc3cccc(C(F)(F)F)c3)c1)C2 [Example 140, 3-methyl-5-[2-(methylthio)-7,8-dihydropyrido[4,3-d]pyrimidin-6(5H)-yl]-N-[3-(trifluoromethyl)phenyl]benzamide] | > 1000 |
| CSc1ncc2c(n1)CCN(c1cc(C)cc(C(=O)Nc3cccc(C(C)C)c3)c1)C2 [Example 142, N-(3-isopropylphenyl)-3-methyl-5-[2-(methylthio)-7,8-dihydropyrido[4,3-d]pyrimidin-6(5H)-yl]benzamide] | > 1000 |
| Cc1ccc(NC(=O)Nc2ccc(N3CCc4ccncc4C3)cc2)cc1 [Example 165, 1-[4-(3,4-dihydro-2,7-naphthyridin-2(1H)-yl)phenyl]-3-(4-methylphenyl)urea] | > 1000 |

biological target: PDGFRβ kinase, purified cytoplasmic domain PDGFR-β protein (Homo sapiens (Human), UniProt P09619); test: PDGFRβ Kinase Assay; type: biochemical; details: 36 μM ATP, poly-Glu-Tyr (4:1) substrate, 60 minute incubation at 30° C., ELISA read at 492 nm
Sequence (P09619 554-1106): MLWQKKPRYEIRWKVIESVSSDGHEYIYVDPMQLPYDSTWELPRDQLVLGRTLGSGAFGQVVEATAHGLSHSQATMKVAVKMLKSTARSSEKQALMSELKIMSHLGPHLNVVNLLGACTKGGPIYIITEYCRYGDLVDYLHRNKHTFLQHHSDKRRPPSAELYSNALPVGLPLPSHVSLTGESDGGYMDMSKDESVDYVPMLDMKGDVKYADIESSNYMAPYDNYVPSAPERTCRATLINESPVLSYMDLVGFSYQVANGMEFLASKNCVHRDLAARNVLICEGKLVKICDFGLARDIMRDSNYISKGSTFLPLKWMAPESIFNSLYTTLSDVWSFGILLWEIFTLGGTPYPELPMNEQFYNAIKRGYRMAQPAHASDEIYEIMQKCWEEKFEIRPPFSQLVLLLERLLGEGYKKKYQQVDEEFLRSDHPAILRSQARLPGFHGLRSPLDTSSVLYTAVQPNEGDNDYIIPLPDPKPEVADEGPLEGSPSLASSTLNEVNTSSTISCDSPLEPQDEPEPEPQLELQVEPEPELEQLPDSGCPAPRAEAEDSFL
Description: Biochemical PDGFRβ kinase assays were performed in 96 well microliter plates that were coated overnight with 75 μg of poly-Glu-Tyr (4:1) in 10 mM Phosphate Buffered Saline (PBS), pH 7.4. The coated plates were washed with 2 mls per well PBS+0.05% Tween-20 (PBS-T), blocked by incubation with PBS containing 1% BSA, then washed with 2 mls per well PBS-T prior to starting the reaction. Reactions were carried out in 100 μL reaction volumes containing 36 μM ATP in kinase buffer (50 mM Hepes buffer pH 7.4, 20 mM MgCl2, 0.1 mM MnCl2 and 0.2 mM Na3VO4). Test compounds were reconstituted in 100% DMSO and added to the reaction to give a final DMSO concentration of 5%. Reactions were initiated by the addition 20 ul per well of kinase buffer containing 200-300 ng purified cytoplasmic domain PDGFR-β protein (Millipore). Following a 60 minute incubation at 30° C., the reactions were washed 2 mls per well PBS-T. 100 μl of a monoclonal anti-phosphotyrosine antibody-peroxidase conjugate diluted 1:10,000 in PBS-T was added to the wells for 30 minutes. Following a 2 mls per well wash with PBS-Tween-20, 100 μl of 0-Phenylenediamine Dihydrochloride in phosphate-citrate buffer, containing urea hydrogen peroxide, was added to the wells for 7-10 minutes as a colorimetric substrate for the peroxidase. The reaction was terminated by the addition of 100 μl of 2.5N H2SO4 to each well and read using a microplate ELISA reader set at 492 nm. IC50 values for compound inhibition were calculated directly from graphs of optical density (arbitrary units) versus compound concentration following subtraction of blank values. […]

| Compound | IC50 [nM] |
| --- | --- |
| CC(C)c1cccc(NC(=O)c2cccc(N3CCc4nc(N)ncc4C3)c2)c1 [Example 2, 3-(2-amino-7,8-dihydropyrido[4,3-d]pyrimidin-6(5H)-yl)-N-(3-isopropylphenyl)benzamide] | 21 |
| Nc1ncc2c(n1)CCN(c1cccc(C(=O)Nc3cccc(C(F)(F)F)c3)c1)C2 [Example 5, 3-(2-amino-7,8-dihydropyrido[4,3-d]pyrimidin-6(5H)-yl)-N-(3-(trifluoromethyl)phenyl)benzamide] | 26 |
| COc1cccc(NC(=O)c2cccc(N3CCc4nc(N)ncc4C3)c2)c1 [Example 7, 3-(2-amino-7,8-dihydropyrido[4,3-d]pyrimidin-6(5H)-yl)-N-(3-methoxyphenyl)benzamide] | 1240 |
| CCc1ccc(NC(=O)c2cccc(N3CCc4nc(N)ncc4C3)c2)cc1 [Example 8, 3-(2-amino-7,8-dihydropyrido[4,3-d]pyrimidin-6(5H)-yl)-N-(4-ethylphenyl)benzamide] | 134 |
| CCc1cccc(NC(=O)c2cccc(N3CCc4nc(N)ncc4C3)c2)c1 [Example 9, 3-(2-amino-7,8-dihydropyrido[4,3-d]pyrimidin-6(5H)-yl)-N-(3-ethylphenyl)benzamide] | 52 |
| CCCc1ccc(NC(=O)c2cccc(N3CCc4nc(N)ncc4C3)c2)cc1 [Example 10, 3-(2-amino-7,8-dihydropyrido[4,3-d]pyrimidin-6(5H)-yl)-N-(4-propylphenyl)benzamide] | 32 |
| CN1CCC(Oc2ccc(NC(=O)c3cccc(N4CCc5nc(N)ncc5C4)c3)cc2)CC1 [Example 11, 3-(2-amino-7,8-dihydropyrido[4,3-d]pyrimidin-6(5H)-yl)-N-(4-((1-methylpiperidin-4-yl)oxy)phenyl)benzamide] | > 1000 |
| CC(C)c1ccc(NC(=O)c2cccc(N3CCc4nc(N)ncc4C3)c2)cc1 [Example 12, 3-(2-amino-7,8-dihydropyrido[4,3-d]pyrimidin-6(5H)-yl)-N-(4-isopropylphenyl)benzamide] | 24 |
| CCCCNC(=O)c1cccc(N2CCc3nc(N)ncc3C2)c1 [Example 16, 3-(2-amino-7,8-dihydropyrido[4,3-d]pyrimidin-6(5H)-yl)-N-butylbenzamide] | > 10000 |
| Nc1ncc2c(n1)CCN(c1cccc(C(=O)NC3CCCC3)c1)C2 [Example 19, 3-(2-amino-7,8-dihydropyrido[4,3-d]pyrimidin-6(5H)-yl)-N-cyclopentylbenzamide] | > 10000 |
| CC(C)(C)CCNC(=O)c1cccc(N2CCc3nc(N)ncc3C2)c1 [Example 20, 3-(2-amino-7,8-dihydropyrido[4,3-d]pyrimidin-6(5H)-yl)-N-(3,3-dimethylbutyl)benzamide] | 164 |
| CCN(CC)C(=O)c1cccc(N2CCc3nc(N)ncc3C2)c1 [Example 21, 3-(2-amino-7,8-dihydropyrido[4,3-d]pyrimidin-6(5H)-yl)-N,N-diethylbenzamide] | > 1000 |
| Cc1cccc(NC(=O)c2cccc(N3CCc4nc(N)ncc4C3)n2)c1 [Example 37, 6-(2-amino-7,8-dihydropyrido[4,3-d]pyrimidin-6(5H)-yl)-N-(3-methylphenyl)pyridine-2-carboxamide] | > 10000 |
| O=C(Nc1ccc(N2CCc3ccncc3C2)cc1)c1cccc(C(F)(F)F)c1 [Example 162, N-[4-(3,4-dihydro-2,7-naphthyridin-2(1H)-yl)phenyl]-3-(trifluoromethyl)benzamide] | > 10000 |
| O=C(Nc1ccccc1)Nc1ccc(N2CCc3ccncc3C2)cc1 [Example 164, 1-[4-(3,4-dihydro-2,7-naphthyridin-2(1H)-yl)phenyl]-3-phenylurea] | > 10000 |
| Cc1ccc(NC(=O)Nc2ccc(N3CCc4ccncc4C3)cc2)cc1 [Example 165, 1-[4-(3,4-dihydro-2,7-naphthyridin-2(1H)-yl)phenyl]-3-(4-methylphenyl)urea] | > 1000 |
